# Assay results: patent publication US6551793B1, “Carotenoid-associated proteins useful for high carotenoid accumulation and production in plants and other organisms” (Yissum Research Development Company of the Hebrew …, priority 1996, dated 2003)
# Experiments:
# Format in all cases: cell-based, Cucumis sativus
# CHRC mRNA [1] = test: In vitro flower bud culture, Northern blot of CHRC mRNA in corollas; details: 100 μM ABA, 2 hours
# Method: (§1) Young flower buds were cultured in vitro in the presence (GA) or the absence (C) of 100 μM GA3 for up to 48 hours. Northern and Western blot analyses of corollas, cultured for the indicated periods of time, were performed. The Northern blots (25 μg total RNA/lane) were hybridized with ^32P-labeled DNA inserts from CHRC (CHRC), […] (Psy), and 18s rDNA (18S). Western blot analysis (bottom panel of A) was performed using antibodies against CHRC protein (25 μg total protein/lane). The results of the CHRC Northern blot analyses are also shown graphically relative to the mRNA level of the untreated corollas at zero time (0) (arbitrary value of 1).
# (§2) Flower buds were cultured in the presence of 100 μm GA3 (GA), 100 μg/ml paclobutrazol following 2 hours of pretreatment with 100 μg/ml paclobutrazol (P), 100 μg/ml paclobutrazol +100 μm GA3 following 2 hours of pretreatment with 100 μg/ml paclobutrazol (P/GA), 100 μM ABA (ABA), or no phytohormones (C). Total RNA was extracted from corollas after 2 hours of treatment. Northern blot analyses were performed and probed as described in the legend to FIG. 7.
# (§3) Total RNA and protein were extracted from cucumber corollas of flower buds cultured for 6 hours in the presence of 100 μM GA3 (GA), 50 μM CHX following 2 hours of pretreatment with 50 μM CHX (CHX/GA), or no phytohormones (C). Northern (CHRC, Psy, and 18S) and Western (bottom panel) blot analyses were performed as described above.
# In FIG. 10, flower buds were cultured for 2 hours without (0) or with various concentrations of GA3. Total RNA was isolated from corollas, and a Northern blot was probed as above. The results of the CHRC Northern blot analyses are also shown graphically relative to the mRNA level of control corollas cultured without GA3 (arbitrary value of 1).
# (§4) This example describes plant material and conditions for in vitro flower bud culture. C. sativus L. plants (cultivar Shimahon, obtained from Zeraim Gadera, Israel) were grown under standard greenhouse conditions. In vitro culture of flower buds was performed at 23° C., under constant light from cool white fluorescent lamps with a photosynthetic photon flux density of 80 μmol/m^2 g, as described previously. Briefly, buds at developmental stage 1 (˜8 mm in length, 120 hours before anthesis) were collected and rinsed several times with sterile water. Buds were then placed for 24 hours on a perforated Parafilm (American National Can, Greenwich, Conn.) covering a Petri dish filled with double-distilled sterile water, such that only the bases of the buds were in contact with the liquid. Following equilibration, buds were transferred to a fresh Petri dish (zero time for the experiments) and treated with GA3, ABA, paclobutrazol, or CHX, as specified in the figure legends.
# This example describes conditions used for RNA isolation and Northern blot analysis. Total RNA from corollas of cucumber flower buds was isolated as described previously. RNA (15 and 25 μg) was fractionated through a 1.2% formaldehyde gel and transferred to a Hybond-N^− filter (Amersham Corp.). A random priming kit (Boehringer Mannheim) was used to radioactively labeled DNA probes. The blots were hybridized with ^32P-labeled cucumber CHRC cDNA (Vishnevetsky, et al., Plant Journal, 10: 1111-1118 (1996)) and reprobed with melon phytoene synthase (PSY) cDNA (MEL5), provided by D. Grierson of the Nottingham University, UK. The hybridization for analysis of CHRC expression was carried out in 0.263 M Na2HPO4, 7% SDS, […], 1% BSA for 16 hours at 60° C., and the washes were performed in 2×SSC/0.1% SDS at 50° C. followed by 2×SSC/0.1% SDS at 55° C., for 20 minutes each. Hybridization with the MEL5 probe was carried out at 55° C. using the same procedure. Following the hybridization, the blots were washed in 5×SSC/0.1% SDS at 45° C. for 20 minutes followed by 5×SSC/0.1% SDS at 50° C. and 2×SSC/0.1% SDS at 50° C. for 20 minutes each. […]
# Psy mRNA = test: In vitro flower bud culture, Northern blot of Psy mRNA in corollas; details: 100 μM ABA or 100 μg/ml paclobutrazol, 2 hours of treatment
# Method: as §1, §2, §3
# as §4, with “Following equilibration, buds were transferred to a fresh Petri dish (zero time for the experiments) and treated with GA3, ABA, paclobutrazol, or CHX, as specified in the figure legends.” left out
# This example describes conditions used for RNA isolation and Northern blot analysis. […] Autoradiograms were quantified by scanning suitably exposed films in a densitometer (Molecular Dynamics, Sunnyvale, Calif.). The amount of RNA loaded onto the gels was standardized by optical measurement, by quantitation of the ethidium bromide fluorescence of cytoplasmic rRNA. and by the level of hybridization with a DNA fragment coding for cytoplasmic 18S RNA.
# CHRD = test: In vitro flower bud culture, Western blot of CHRD in corollas; details: flower buds cultured for 72 hours
# Method: CHRD levels in corollas were analyzed by western blotting (10 μg of total protein per lane) using antibodies against CHRD and horseradish peroxidase anti-rabbit IgG in an enhanced chemiluminescence detection system. FIG. 14B is a Western blot analysis of corollas (50 μg of total protein per lane) cultured for the indicated periods with (+) or without (−) GA3. The blot was decorated with antibodies against CHRD and alkaline phosphatase anti-rabbit 1 gG.
# In FIG. 15A, antibodies against CHRD or CHRC were used in a western blot analysis of CHRD and CHRC levels, respectively, in corollas cultured for 72 hours in the presence (E) or absence (C) of ethylene (50 μg of total protein per lane). In FIG. 15B, flowers were enclosed in aluminum foil in the greenhouse for 3 days and CHRD levels in etiolated (D) and control, nonetiolated (L) corollas were analyzed by western blotting (50 μg of total protein per lane).
# as §4
# CHRD protein was isolated from Cucumis sativus as a minor component, immunologically characterised and analyzed in terms of the regulation of its expression by developmental signals using methods and conditions described above for CHRC. […] Carotenoids are known to accumulate in dark.
# CHRC mRNA [2] = test: In vitro flower bud culture, Northern blot of CHRC mRNA in corollas; details: 10 μM ABA
compound,measurement,setting,value
"CC1=CC(=O)CC(C)(C)[C@@]1(O)/C=C/C(C)=C\C(=O)O [ABA, abscisic acid]",Down-regulation of CHRC mRNA level compared with control corollas,CHRC mRNA [1],2.5 times
same,Effect on Psy mRNA levels,Psy mRNA,Neither ABA nor paclobutrazol markedly affected
same,"CHRD level per unit protein, down-regulation compared with control untreated corollas",CHRD,2.5±0.3 times
same,Down-regulation of CHRC expression,CHRC mRNA [2],only slightly down-regulated
